# Columns and labels:
# [1] = test system: giant foxtail; assay: Test A pre-/postemergence herbicide test; assay type: in vivo, Setaria faberi
# Method in brief: (§1)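 Seeds sown in sandy loam received a preemergence directed soil spray of compound in non-phytotoxic solvent with surfactant; postemergence plants (2–10 cm, one- to two-leaf stage) were sprayed to runoff at the same time. After ~10 days in greenhouse, injury was rated visually versus untreated controls (0 = no effect, 100 = complete control).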
# [2] = test system: morningglory; assay: Test A pre-/postemergence herbicide test; assay type: in vivo, Ipomoea spp.
# Method in brief: as §1
# [3] = test system: velvetleaf; assay: Test A pre-/postemergence herbicide test; assay type: in vivo, Abutilon theophrasti
# Method in brief: as §1
# [4] = test system: Surinam grass; assay: Test C pre-/postemergence herbicide test; assay type: in vivo, Urochloa decumbens; conditions: for Surinam Grass plant response rating: Preemergence, 500 g ai/ha, scale 0 to 100, 0 no effect, 100 complete control
# Method in brief: (§2)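 Seeds were planted and sprayed preemergence with test chemicals in a non-phytotoxic solvent mixture containing surfactant; postemergence treatments went onto plants 2 to 18 cm tall (1- to 4-leaf stage). After 12 to 14 days in a greenhouse, injury was rated visually against untreated controls on a 0–100 scale.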
# [5] = test system: corn; assay: Test C pre-/postemergence herbicide test; assay type: in vivo, Zea mays; conditions: for Corn plant response rating: Preemergence, 500 g ai/ha
# Method in brief: as §2
# [6] = test system: kochia; assay: Test C pre-/postemergence herbicide test; assay type: in vivo, Kochia scoparia; conditions: for Kochia plant response rating: Preemergence, 500 g ai/ha
# Method in brief: as §2
# [7] = test system: lambsquarters; assay: Test C pre-/postemergence herbicide test; assay type: in vivo, Chenopodium album; conditions: for Lambsquarters plant response rating: Preemergence, 500 g ai/ha, scale 0 to 100, 0 no effect, 100 complete control
# Method in brief: as §2
# [8] = test system: pigweed; assay: Test C pre-/postemergence herbicide test; assay type: in vivo, Amaranthus retroflexus; conditions: for Pigweed plant response rating: Preemergence, 500 g ai/ha, scale 0 to 100, 0 no effect, 100 complete control
# Method in brief: as §2
# [9] = test system: velvetleaf; assay: Test C pre-/postemergence herbicide test; assay type: in vivo, Abutilon theophrasti; conditions: for Velvetleaf plant response rating: Preemergence, 500 g ai/ha, scale 0 to 100, 0 no effect, 100 complete control
# Method in brief: as §2
# [10] = Postemergence, 500 g ai/ha, 0 to 100 scale, 0 no effect, 100 complete control
# [11] = Postemergence, 2000 g ai/ha, 0 to 100 scale, 0 no effect, 100 complete control
# [12] = Preemergence, 2000 g ai/ha, visual rating, 0 to 100 scale (0 no effect, 100 complete control)
# [13] = preemergence, 500 g ai/ha, visual injury, 0 to 100 scale (0 no effect, 100 complete control)
# [14] = 62 g ai/ha, preemergence, scale 0 to 100
# [15] = 125 g ai/ha, scale 0 (no effect) to 100 (complete control), visual, 12 to 14 days, preemergence
# [16] = 250 g ai/ha, scale 0-100, preemergence
# [17] = scale 0 to 100, 0 no effect, 100 complete control
# [18] = Preemergence, 500 g ai/ha, visual rating, 0 to 100 scale (0 no effect, 100 complete control)
# [19] = Preemergence, 2000 g ai/ha, 0 to 100 scale, 0 no effect, 100 complete control
# [20] = 31 g ai/ha, preemergence, scale 0 to 100
# [21] = postemergence, 125 g ai/ha, scale 0 to 100
# [22] = postemergence, 62 g ai/ha, scale 0 to 100
# [23] = Postemergence, 125 g ai/ha, scale 0 to 100, 0 no effect, 100 complete control
smiles,measurement,setting,value
CCc1nc(C(C)(C)C)sc1C(=O)Nc1cccc(C(=O)N(CC)CC)c1 [Compound 205],"Foxtail, Giant plant response rating",[1]; [10],10
same,"Plant response rating, Foxtail, Giant",[1]; [11],25
same,"Foxtail, Giant plant response rating",[1]; [12],100
same,"Foxtail, Giant plant response rating",[1]; [13],85
same,Morningglory plant response rating,[2]; [10],25
same,"Plant response rating, Morningglory",[2]; [11],20
same,Morningglory plant response rating,[2]; [12],45
same,Morningglory plant response rating,[2]; [13],30
same,Velvetleaf plant response rating,[3]; [10],20
same,"Plant response rating, Velvetleaf",[3]; [11],30
same,Velvetleaf plant response rating,[3]; [12],100
same,Velvetleaf plant response rating,[3]; [13],70
same,"Plant response rating, Surinam Grass",[4]; [14],0
same,"Plant response rating, Surinam Grass",[4]; [15],20
same,"Plant response rating, Surinam Grass",[4]; [16],50
same,Surinam Grass plant response rating,[4],85
same,"Plant response rating, Corn",[5]; [14],0
same,"Plant response rating, Corn",[5]; [15],0
same,"Plant response rating, Corn",[5]; [16],0
same,Corn plant response rating,[5]; [17],40
same,"Plant response rating, Kochia",[6]; [14],90
same,"Plant response rating, Kochia",[6]; [15],90
same,"Plant response rating, Kochia",[6]; [16],90
same,Kochia plant response rating,[6]; [17],90
same,"Plant response rating, Lambsquarters",[7]; [14],85
same,"Plant response rating, Lambsquarters",[7]; [15],90
same,"Plant response rating, Lambsquarters",[7]; [16],90
same,Lambsquarters plant response rating,[7],100
same,"Plant response rating, Pigweed",[8]; [14],90
same,"Plant response rating, Pigweed",[8]; [15],95
same,"Plant response rating, Pigweed",[8]; [16],95
same,Pigweed plant response rating,[8],100
same,"Plant response rating, Velvetleaf",[9]; [14],10
same,"Plant response rating, Velvetleaf",[9]; [15],40
same,"Plant response rating, Velvetleaf",[9]; [16],60
same,Velvetleaf plant response rating,[9],100
CCNC(=O)c1cccc(NC(=O)c2cc(C(C)(C)C)nn2CCF)c1 [Compound 35],"Plant response rating, Foxtail, Giant",[1]; [10],50
same,"Plant response rating, Foxtail, Giant",[1]; [11],70
same,"Foxtail, Giant plant response rating",[1]; [18],80
same,"Foxtail, Giant plant response rating",[1]; [19],100
same,"Plant response rating, Morningglory",[2]; [10],10
same,"Plant response rating, Morningglory",[2]; [11],10
same,Morningglory plant response rating,[2]; [18],25
same,Morningglory plant response rating,[2]; [19],85
same,"Plant response rating, Velvetleaf",[3]; [10],25
same,"Plant response rating, Velvetleaf",[3]; [11],40
same,Velvetleaf plant response rating,[3]; [18],35
same,Velvetleaf plant response rating,[3]; [19],95
same,"Plant response rating, Surinam Grass",[4]; [20],0
same,"Plant response rating (0 = no effect, 100 = complete control), Surinam Grass","[4]; 62 g ai/ha, preemergence",10
same,"Plant response rating, Surinam Grass",[4]; [15],20
same,"Plant response rating, Surinam Grass",[4]; [21],60
same,"Plant response rating, Surinam Grass",[4]; [22],40
same,"Plant response rating, Corn",[5]; [20],0
same,"Plant response rating (0 = no effect, 100 = complete control), Corn","[5]; 62 g ai/ha, preemergence",0
same,"Plant response rating, Corn",[5]; [15],0
same,"Plant response rating, Corn",[5]; [23],40
same,"Plant response rating, Corn",[5]; [22],30
same,"Plant response rating, Kochia",[6]; [20],0
same,"Plant response rating (0 = no effect, 100 = complete control), Kochia","[6]; 62 g ai/ha, preemergence",10
same,"Plant response rating, Kochia",[6]; [15],10
same,"Plant response rating, Kochia",[6]; [23],90
same,"Plant response rating, Kochia",[6]; [22],90
same,"Plant response rating, Lambsquarters",[7]; [20],0
same,"Plant response rating (0 = no effect, 100 = complete control), Lambsquarters","[7]; 62 g ai/ha, preemergence",90
same,"Plant response rating, Lambsquarters",[7]; [15],100
same,"Plant response rating, Lambsquarters",[7]; [21],90
same,"Plant response rating, Lambsquarters",[7]; [22],90
same,"Plant response rating, Pigweed",[8]; [20],0
same,"Plant response rating (0 = no effect, 100 = complete control), Pigweed","[8]; 62 g ai/ha, preemergence",90
same,"Plant response rating, Pigweed",[8]; [15],100
same,"Plant response rating, Pigweed",[8]; [21],100
same,"Plant response rating, Pigweed",[8]; [22],100
same,"Plant response rating, Velvetleaf",[9]; [20],0
same,"Plant response rating (0 = no effect, 100 = complete control), Velvetleaf","[9]; 62 g ai/ha, preemergence",100
same,"Plant response rating, Velvetleaf",[9]; [15],100
same,"Plant response rating, Velvetleaf",[9]; [21],80
same,"Plant response rating, Velvetleaf",[9]; [22],70
CCN(CC)C(=O)c1ccnc(NC(=O)c2cc(C(C)(C)C)nn2CC)c1 [Compound 153],"Foxtail, Giant plant response rating",[1]; [10],20
same,"Plant response rating, Foxtail, Giant",[1]; [11],90
same,"Foxtail, Giant plant response rating",[1]; [18],15
same,"Foxtail, Giant plant response rating",[1]; [12],60
same,Morningglory plant response rating,[2]; [10],35
same,"Plant response rating, Morningglory",[2]; [11],85
same,Morningglory plant response rating,[2]; [18],10
same,Morningglory plant response rating,[2]; [12],55
same,Velvetleaf plant response rating,[3]; [10],40
same,"Plant response rating, Velvetleaf",[3]; [11],65
same,Velvetleaf plant response rating,[3]; [12],80
same,Velvetleaf plant response rating,[3]; [13],15
same,"Plant response rating, Surinam Grass",[4]; [14],0
same,"Plant response rating, Surinam Grass",[4]; [15],0
same,Surinam Grass plant response rating,[4],100
same,"Plant response rating, Corn",[5]; [14],0
same,"Plant response rating, Corn",[5]; [15],0
same,"Plant response rating, Corn","[5]; 250 g ai/ha, scale 0 to 100 (0 no effect, 100 complete control), visual, 12 to 14 days, preemergence",0
same,Corn plant response rating,[5]; [17],0
same,"Plant response rating, Kochia",[6]; [14],65
same,"Plant response rating, Kochia",[6]; [15],95
same,Kochia plant response rating,[6]; [17],100
same,"Plant response rating, Lambsquarters",[7]; [14],95
same,"Plant response rating, Lambsquarters",[7]; [15],100
same,Lambsquarters plant response rating,[7],100
same,"Plant response rating, Pigweed",[8]; [14],95
same,"Plant response rating, Pigweed",[8]; [15],100
same,Pigweed plant response rating,[8],100
same,"Plant response rating, Velvetleaf",[9]; [14],0
same,"Plant response rating, Velvetleaf",[9]; [15],20
same,Velvetleaf plant response rating,[9],100
